In ChEMBL document CHEMBL4020731, “Dimeric isoxazolyl-1,4-dihydropyridines have enhanced binding at the multi-drug resistance transporter” (Bioorg Med Chem, 2017):

Experiments:
[1] = molecular target: MDR-1 (P-glycoprotein, ABCB1) (Homo sapiens, UniProt P08183); assay: (§1) Inhibition of MDR-1 in human Caco-2 cells at 10 uM after 30 mins by calcein-AM dye based fluorescence assay relative to cyclosporin; assay type: cell-based; details: Caco-2 cells, probe calcein-AM
[2] = molecular target: Voltage-gated L-type calcium channel (Homo sapiens, UniProt Q13936+Q13698+Q01668+O60840); assay: Displacement of [3H]PN-200110 from voltage-dependent L-type calcium channel (unknown origin) by scintillation counting method
[3] = molecular target: T1, ATP-dependent translocase ABCB1 (Homo sapiens, UniProt P08183); assay: Inhibition of MDR-1 in human Caco-2 cells after 30 mins by calcein-AM dye based fluorescence assay; assay type: cell-based
T1 sequence (P08183 whole entry): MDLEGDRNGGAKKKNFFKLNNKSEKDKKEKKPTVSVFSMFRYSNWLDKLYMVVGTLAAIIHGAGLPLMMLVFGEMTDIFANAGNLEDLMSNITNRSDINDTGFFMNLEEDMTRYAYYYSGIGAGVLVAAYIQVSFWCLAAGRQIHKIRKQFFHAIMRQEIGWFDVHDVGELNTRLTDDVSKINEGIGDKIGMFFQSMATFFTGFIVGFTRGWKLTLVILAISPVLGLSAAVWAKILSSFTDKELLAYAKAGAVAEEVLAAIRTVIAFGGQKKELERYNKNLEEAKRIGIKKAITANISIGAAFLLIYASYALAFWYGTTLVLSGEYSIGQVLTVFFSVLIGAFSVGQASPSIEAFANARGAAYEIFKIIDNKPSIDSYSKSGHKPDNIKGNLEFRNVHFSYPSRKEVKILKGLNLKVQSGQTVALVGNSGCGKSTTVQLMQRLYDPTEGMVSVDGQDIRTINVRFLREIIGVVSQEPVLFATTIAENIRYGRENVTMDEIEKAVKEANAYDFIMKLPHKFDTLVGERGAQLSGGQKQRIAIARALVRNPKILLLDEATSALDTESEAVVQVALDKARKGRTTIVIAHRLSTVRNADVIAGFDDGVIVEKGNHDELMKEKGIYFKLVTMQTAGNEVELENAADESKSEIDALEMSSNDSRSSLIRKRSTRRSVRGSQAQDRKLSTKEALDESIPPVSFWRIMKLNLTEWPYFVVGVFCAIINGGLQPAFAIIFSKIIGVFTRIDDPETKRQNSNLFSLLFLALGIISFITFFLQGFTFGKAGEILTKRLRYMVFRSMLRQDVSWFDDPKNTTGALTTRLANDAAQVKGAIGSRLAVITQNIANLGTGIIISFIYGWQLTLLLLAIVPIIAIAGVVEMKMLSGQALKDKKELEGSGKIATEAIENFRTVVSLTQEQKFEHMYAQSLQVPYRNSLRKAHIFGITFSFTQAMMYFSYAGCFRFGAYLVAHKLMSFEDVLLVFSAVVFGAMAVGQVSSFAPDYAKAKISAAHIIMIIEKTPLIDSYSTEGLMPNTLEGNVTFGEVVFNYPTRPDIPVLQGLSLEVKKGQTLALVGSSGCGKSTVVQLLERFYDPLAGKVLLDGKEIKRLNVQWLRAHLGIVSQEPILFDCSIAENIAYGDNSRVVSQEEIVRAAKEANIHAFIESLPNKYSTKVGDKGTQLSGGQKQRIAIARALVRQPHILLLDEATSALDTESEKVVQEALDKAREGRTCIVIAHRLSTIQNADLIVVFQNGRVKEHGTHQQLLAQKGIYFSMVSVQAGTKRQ

[4] = molecular target: Metabotropic glutamate receptor 5 (Rattus norvegicus) (UniProt P31424); assay: Displacement of [3H]MPEP from rat brain mGluR5 expressed in CHO cells by scintillation counting method; assay type: cell-based
Metabotropic glutamate receptor 5 (Rattus norvegicus), sequence (P31424 21-1203 limits assumed): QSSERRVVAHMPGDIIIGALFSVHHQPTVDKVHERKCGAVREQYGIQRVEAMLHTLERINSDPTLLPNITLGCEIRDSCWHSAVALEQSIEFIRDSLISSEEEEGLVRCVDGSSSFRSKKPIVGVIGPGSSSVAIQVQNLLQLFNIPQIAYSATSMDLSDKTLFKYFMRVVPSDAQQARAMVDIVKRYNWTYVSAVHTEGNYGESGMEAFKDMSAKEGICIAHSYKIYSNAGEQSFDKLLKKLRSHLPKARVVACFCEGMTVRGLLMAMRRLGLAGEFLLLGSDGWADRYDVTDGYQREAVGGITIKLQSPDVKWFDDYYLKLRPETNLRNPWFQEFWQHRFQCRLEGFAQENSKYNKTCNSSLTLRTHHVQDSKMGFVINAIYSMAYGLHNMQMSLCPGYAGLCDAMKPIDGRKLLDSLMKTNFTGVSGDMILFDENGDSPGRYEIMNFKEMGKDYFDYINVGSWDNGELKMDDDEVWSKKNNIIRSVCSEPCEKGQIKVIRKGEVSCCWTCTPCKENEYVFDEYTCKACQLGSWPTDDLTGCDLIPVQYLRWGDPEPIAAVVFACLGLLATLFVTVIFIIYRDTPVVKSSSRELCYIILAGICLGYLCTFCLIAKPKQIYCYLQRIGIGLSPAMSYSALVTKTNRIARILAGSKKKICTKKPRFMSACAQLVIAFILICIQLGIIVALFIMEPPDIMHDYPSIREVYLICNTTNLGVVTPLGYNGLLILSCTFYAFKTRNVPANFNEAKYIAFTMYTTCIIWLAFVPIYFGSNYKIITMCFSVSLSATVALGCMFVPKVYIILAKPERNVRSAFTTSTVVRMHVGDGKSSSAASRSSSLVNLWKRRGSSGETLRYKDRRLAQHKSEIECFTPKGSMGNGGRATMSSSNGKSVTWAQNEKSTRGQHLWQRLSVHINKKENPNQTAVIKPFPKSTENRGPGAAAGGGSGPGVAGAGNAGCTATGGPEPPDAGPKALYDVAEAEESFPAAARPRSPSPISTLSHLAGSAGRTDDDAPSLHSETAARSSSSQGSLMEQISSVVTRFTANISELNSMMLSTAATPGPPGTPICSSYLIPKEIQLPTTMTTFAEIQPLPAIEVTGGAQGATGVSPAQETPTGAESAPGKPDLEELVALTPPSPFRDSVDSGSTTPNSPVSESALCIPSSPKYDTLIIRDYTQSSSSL

[5] = molecular target: T1, ATP-dependent translocase ABCB1; assay: as §1; assay type: cell-based; details: 0.5 h, 10 µM

MDR-1 (P-glycoprotein, ABCB1), sequence (P08183 whole entry): as the sequence (P08183 whole entry) above

Row | Compound | inhibition at 0.5 h, 10 µM [1] [%] | IC50 [2] [nM] | IC50 [3] [nM] | Ki [4] [nM] | inhibition (INH) [5] [%] | pIC50 [2]
1 | CCOC(=O)C1=C(C)NC(C)=C(C(=O)OCc2cn(CCOCCOCCOCCOCCOCCn3cc(COC(=O)C4=C(C)NC(C)=C(C(=O)OCC)C4c4c(-c5ccccc5)noc4C)nn3)nn2)C1c1c(-c2ccccc2)noc1C (stereo not given) | 20.4 | > 10000 | > 10000 | > 10000 | – | –
2 | CCOC(=O)C1=C(C)NC(C)=C(C(=O)OCc2cn(CCOCCOCCOCCn3cc(COC(=O)C4=C(C)NC(C)=C(C(=O)OCC)C4c4c(-c5ccc(Br)cc5)noc4C)nn3)nn2)C1c1c(-c2ccc(Br)cc2)noc1C (stereo not given) | 11.6 | 516 | 3230 | 546 | – | –
3 | CCOC(=O)C1=C(C)NC(C)=C(C(=O)OCc2cn(CCOCCOCCOCCOCCOCCn3cc(COC(=O)C4=C(C)NC(C)=C(C(=O)OCC)C4c4c(-c5ccccc5Br)noc4C)nn3)nn2)C1c1c(-c2ccccc2Br)noc1C (stereo not given) | 17.7 | > 10000 | 2860 | 4860 | – | –
4 | CCOC(=O)C1=C(C)NC(C)=C(C(=O)OCC)C1c1c(-c2ccc(Br)cc2)noc1C | 58.4 | 36 | 3100 | > 10000 | – | 7.44
5 | CCOC(=O)c1c(C)nc(C)c(C(=O)OCC)c1-c1c(-c2ccccc2)noc1C | 36.9 | > 10000 | > 10000 | > 10000 | – | –
6 | CCOC(=O)C1=C(C)NC(C)=C(C(=O)OCc2cn(CCc3ccccc3)nn2)C1c1c(-c2ccc(Br)cc2)noc1C (stereo not given) | 108 | 127 | 1640 | 1970 | – | –
7 | CCOC(=O)C1=C(C)NC(C)=C(C(=O)OCC)C1c1c(-c2ccccc2Br)noc1C | -12 | 909 | > 10000 | 1520 | – | –

The next molecules have a lower IC50 [3] than those just listed; values first:

Row | inhibition at 0.5 h, 10 µM [1] [%] | IC50 [2] [nM] | IC50 [3] [nM] | Ki [4] [nM] | inhibition (INH) [5] [%] | pIC50 [2] | Compound
8 | 41.9 | 603 | 1450 | 933 | – | – | CCOC(=O)C1=C(C)NC(C)=C(C(=O)OCc2cn(CCOCCOCCn3cc(COC(=O)C4=C(C)NC(C)=C(C(=O)OCC)C4c4c(-c5ccc(Br)cc5)noc4C)nn3)nn2)C1c1c(-c2ccc(Br)cc2)noc1C (stereo not given)
9 | – | 3766 | 1300 | 8640 | 150.8 | – | CCOC(=O)C1=C(C)NC(C)=C(C(=O)OCc2cn(CCOCCOCCOCCOCCOCCn3cc(COC(=O)C4=C(C)NC(C)=C(C(=O)OCC)C4c4c(-c5cccc(Br)c5)noc4C)nn3)nn2)C1c1c(-c2cccc(Br)c2)noc1C (stereo not given)
10 | – | 2706 | 1390 | 193 | 172.6 | – | CCOC(=O)C1=C(C)NC(C)=C(C(=O)OCc2cn(CCOCCOCCOCCOCCOCCn3cc(COC(=O)C4=C(C)NC(C)=C(C(=O)OCC)C4c4c(-c5ccc(Br)cc5)noc4C)nn3)nn2)C1c1c(-c2ccc(Br)cc2)noc1C (stereo not given)
11 | 102 | 208 | 510 | > 10000 | – | – | CCOC(=O)C1=C(C)NC(C)=C(C(=O)OCC)C1c1c(-c2cccc(Br)c2)noc1C
